# From paper PMC6508583 (Journal of the American Chemical Society, 2019)
# Like-named read-outs stand apart in the source and are kept apart here.
# Columns and labels:
# [1] = tested on: Mit13 hybrid ribosome (decoding A site of the human mitochondrial ribosome); assay type: biochemical; settings: for Selectivity Mit 13: Mit13 over wt bacterial ribosome; for IC50 Mit13: in vitro translation inhibition, Mit13 hybrid ribosome
# [2] = tested on: Cyt14 hybrid ribosome (decoding A site of the human cytoplasmic ribosome); assay type: biochemical; settings: for Selectivity Cyt14: Cyt14 over wt bacterial ribosome; for IC50 Cyt 14: in vitro translation inhibition, Cyt14 hybrid ribosome
# [3] = tested on: A1555G mutant mitochondrial hybrid ribosome; assay type: biochemical, human; settings: for Selectivity A1555G: A1555G over wt bacterial ribosome; for IC50 A1555G: in vitro translation inhibition, A1555G mutant mitochondrial hybrid ribosome
# [4] = tested on: E. coli carrying specific resistance determinants; experiment: Activity against wild-type and engineered E. coli carrying specific AMEs or RMTs; assay type: cell-based; settings: for MIC: Escherichia coli
# [5] = tested on: E coli 70S ribosome (helix 44, A1408); experiment: Quantitative dimethyl sulfate footprinting of the 70S ribosome; assay type: binding; settings: read-out: apparent Kd; DMS footprinting, % protection of N1 of A1408, E. coli 70S ribosome
# [6] = tested on: Mycobacterium abscessus; experiment: microbe, parasite or virus in culture; assay type: cell-based; settings: Mycobacteroides abscessus
# [7] = tested on: E. coli; experiment: Antibacterial activity against reference strains: E. coli; settings: for MIC: Escherichia coli; for Antibacterial activity (MIC) E. coli AG003: strain AG003 carries the AAC(3) gene
# [8] = tested on: MRSA; experiment: Antibacterial activity against reference strains: MRSA; assay type: cell-based; settings: for MIC: Staphylococcus aureus, MRSA; for Antibacterial activity (MIC) MRSA AG038: strain AG038; for Antibacterial activity (MIC) MRSA AG042: strain AG042 carries the AAC(6)’, ANT(4’,4’’) and APH(3’) genes
# [9] = tested on: wild-type bacterial ribosome; experiment: Cell-free translation assay, wild-type bacterial ribosome; assay type: biochemical; settings: in vitro translation inhibition
# [10] = tested on: E. cloacae; experiment: Antibacterial activity against reference strains: E. cloacae; assay type: cell-based; settings: for MIC: Enterobacter cloacae, read-out: Antibacterial activity (MIC) E. cloacae AG290; for Antibacterial activity (MIC) E. cloacae AG290: strain AG290
# [11] = tested on: Mycobacterium tuberculosis clinical isolates; experiment: microbe, parasite or virus in culture; assay type: cell-based; settings: Mycobacterium tuberculosis, read-out: MIC M. tuberculosis clinical isolates
# [12] = tested on: E. cloacae clinical isolates carrying two or more resistance determinants; assay type: cell-based; settings: Enterobacter cloacae
# [13] = tested on: E. coli clinical isolates carrying two or more resistance determinants; experiment: Activity against E. coli clinical isolates with multiple resistance determinants; assay type: cell-based; settings: Escherichia coli
# [14] = tested on: K. pneumoniae; experiment: Antibacterial activity against reference strains: K. pneumoniae; assay type: cell-based; settings: strain AG215
# [15] = tested on: A. baumannii; experiment: Antibacterial activity against reference strains: A. baumannii; assay type: cell-based; settings: strain AG225
# [16] = tested on: P. aeruginosa; experiment: Antibacterial activity against reference strains: P. aeruginosa
# [17] = read-out: Activity (MIC) E. coli AG006
# [18] = read-out: Activity (MIC) E. coli AG007
# [19] = read-out: Activity (MIC) E. coli AG008
# [20] = read-out: Activity (MIC) E. coli AG009
# [21] = read-out: Activity (MIC) E. coli AG036
# [22] = read-out: Activity (MIC) E. coli AG103
# [23] = read-out: Activity (MIC) E. coli AG105
# [24] = read-out: Activity (MIC) E. coli AG166
# [25] = read-out: Antibacterial activity (MIC) E. coli AG001
# [26] = read-out: Antibacterial activity (MIC) E. coli AG003
# [27] = read-out: Antibacterial activity (MIC) MRSA AG038
# [28] = read-out: Antibacterial activity (MIC) MRSA AG042
Structure (SMILES),Selectivity Mit 13 [1],IC50 Mit13 [1] [mg/L],Selectivity Cyt14 [2],IC50 Cyt 14 [2] [mg/L],Selectivity A1555G [3],IC50 A1555G [3] [mg/L],"MIC [4, 17] [mg/L]","MIC [4, 18] [mg/L]","MIC [4, 19] [mg/L]","MIC [4, 20] [mg/L]","MIC [4, 21] [mg/L]","MIC [4, 22] [mg/L]","MIC [4, 23] [mg/L]","MIC [4, 24] [mg/L]",Kd [5] [µM],"MIC [7, 25] [mg/L]","MIC [7, 26] [mg/L]","MIC [8, 27] [mg/L]","MIC [8, 28] [mg/L]",IC50 wt [9] [mg/L],other results
"NC[C@@H]1O[C@H](O[C@H]2[C@@H](O)[C@H](O[C@@H]3[C@@H](O)[C@H](N)C[C@H](N)[C@H]3O[C@H]3O[C@H](CO)[C@@H](O)[C@H](O)[C@H]3N)O[C@@H]2CO)[C@H](N)[C@@H](O)[C@@H]1O [Compound 1, paromomycin, reference compound]",2500,50,470,9.4,270,5.4,1 to 2,4,2 to 4,4,32 to 64,4,2,> 128,0.59 ± 0.05,2 to 4,8 to 16,4,> 256,0.02,"MIC ([6]; read-out: MIC M. abscessus): 64 mg/L; MIC ([6]; read-out: MIC M. abscessus, AAC(2’) gene deleted): 16 mg/L; MIC [10]: 2 mg/L; MIC [11]: 2 to 4 mg/L"
NC[C@H]1O[C@H](O[C@H]2[C@H](O)[C@@H](O[C@H]3O[C@H](CO)[C@@H](O)[C@H](N)[C@H]3O)[C@H](N)C[C@@H]2N)[C@H](N)C[C@@H]1O [Tobramycin],750,15,1350,27,25,0.5,0.5,4,8,64 to 128,16 to 32,> 128,1,0.5 to 1,,1 to 2,4,0.5 to 1,≥ 256,0.02,MIC ([12]; read-out: Activity (MIC) E. cloacae isolate 201333207): 32 mg/L; MIC ([12]; read-out: Activity (MIC) E. cloacae isolate 201385168): > 256 mg/L; MIC ([12]; read-out: Activity (MIC) E. cloacae isolate 201430601): 32 mg/L; MIC ([12]; read-out: Activity (MIC) E. cloacae isolate 201435487): 16 mg/L; MIC [10]: 0.5 to 1 mg/L; MIC ([13]; read-out: Activity (MIC) E. coli isolate 201430298): 256 mg/L; MIC ([13]; read-out: Activity (MIC) E. coli isolate 201441114): 32 mg/L; MIC ([13]; read-out: Activity (MIC) E. coli isolate 2014251408): 128 mg/L; MIC ([13]; read-out: Activity (MIC) E. coli isolate 2014405344): > 256 mg/L
CCOC1C(CO)OC(OC2C(N)CC(N)C(O)C2OC2OC(CO)C(OC3OC(CN)C(O)C(O)C3N)C2O)C(N)C1O (stereo not drawn) [Compound 3],1075,86,1100,88,1188,95,,,,,,,,,1.03 ± 0.2,,,,,0.08,"Activity (MIC) E. coli AG006 ([4]; strain AG006, WT): 8 to 16 mg/L; Activity (MIC) E. coli AG007 ([4]; strain AG007, AAC(3)): 16 to 32 mg/L; Activity (MIC) E. coli AG008 ([4]; strain AG008, ANT(2’’)): 8 mg/L; Activity (MIC) E. coli AG009 ([4]; strain AG009, AAC(6’)): 16 mg/L; Activity (MIC) E. coli AG036 ([4]; strain AG036, ANT(4′,4′′)): 8 to 16 mg/L; Activity (MIC) E. coli AG103 ([4]; strain AG103, armA): ≥64 mg/L; Activity (MIC) E. coli AG105 ([4]; strain AG105, AAC(2′)): 8 to 16 mg/L; Activity (MIC) E. coli AG166 ([4]; strain AG166, APH(3′)): 64 mg/L; Antibacterial activity (MIC) K. pneumoniae AG215 [14]: 8 mg/L; Antibacterial activity (MIC) E. coli AG001 ([7]; strain AG001): 16 mg/L; Antibacterial activity (MIC) E. coli AG003 [7]: 32 mg/L; Antibacterial activity (MIC) A. baumannii AG225 [15]: 16 to 32 mg/L; Antibacterial activity (MIC) MRSA AG038 [8]: 8 to 16 mg/L; Antibacterial activity (MIC) MRSA AG042 [8]: 8 to 16 mg/L; Antibacterial activity (MIC) P. aeruginosa AG031 ([16]; strain AG031 carries the APH(3’) gene): >64 mg/L; Antibacterial activity (MIC) P. aeruginosa AG220 ([16]; strain AG220 carries the APH(3’) gene): >64 mg/L; Antibacterial activity (MIC) E. cloacae AG290 [10]: 8 mg/L"
"NC[C@@H]1O[C@H](O[C@H]2[C@@H](O)[C@H](O[C@@H]3[C@@H](O)[C@H](N)C[C@H](N)[C@H]3O[C@H]3O[C@H](CO)C[C@H](O)[C@H]3N)O[C@@H]2CO)[C@H](N)[C@@H](O)[C@@H]1O [Compound 2, 4’-deoxy paromomycin]",1480,74,560,28,480,24,,,,,,,,,,,,,,0.05,Antibacterial activity (MIC) K. pneumoniae AG215 [14]: 4 mg/L; Antibacterial activity (MIC) E. coli AG003 [7]: 32 mg/L; Antibacterial activity (MIC) A. baumannii AG225 [15]: 8 mg/L; Antibacterial activity (MIC) MRSA AG038 [8]: 16 mg/L; Antibacterial activity (MIC) MRSA AG042 [8]: 8 to 16 mg/L; Antibacterial activity (MIC) E. cloacae AG290 [10]: 4 to 8 mg/L
